≈ marks a conversion by molar mass, not a printed value. Read-outs that look alike come from different tables or passages of the source.
Tests used:
Bacillus subtilis = assay: Minimal Inhibitory Concentration (MIC), Table I; type: cell-based
From the text: (§1) In general, the novel pseudotrisaccharides of this invention (I) can be used to treat diverse types of susceptible microbial, viral, helmintic and protozoal infestations. These anthelmintic, antiprotozoal, antimicrobial and antiviral activities can readily be determined by standard in vivo and in vitro tests well known to the microbiologist and virologist. Of the compounds of this invention it can generally be stated that those 6'--NH2 or 6'--NHR4 compounds having a 2'--OH group are preferred for their activity against bacteria, trichomonas, amoeba, and helminths; those 2'--HN2 or 2'--NHR4 compounds having a 6'--OH group are preferred for their activity against bacteria, trichomona, amoeba, and helminths; those 2'--NH2 or 2'--NHR4 compounds having a 6'--NH2 or a 6'--NHR4 group are preferred for their antibacterial activity while those 2'--OH or 6'--OH compounds are preferred for their antitrichomonal activity.
(§2) Typical activity is illustrated by the following tables showing antibacterial and antiprotozoal activities.
(§3) Minimal Inhibitory Concentration (MIC) (mcg/ml)

[1] = test system: Escherichia coli (G resistant); assay: Minimal Inhibitory Concentration (MIC), Table I; type: cell-based; settings: garamycin resistant
From the text: as §1, §2, §3

[2] = test system: Escherichia coli (N,K resistant); assay: Minimal Inhibitory Concentration (MIC), Table I; type: cell-based; settings: neomycin, kanamycin resistant
From the text: as §1, §2, §3

[3] = test system: Escherichia coli (T resistant); assay: Minimal Inhibitory Concentration (MIC), Table I; type: cell-based; settings: tobramycin resistant
From the text: as §1, §2, §3

Escherichia coli = assay: Minimal Inhibitory Concentration (MIC), Table I; type: cell-based
From the text: as §1, §2, §3

[4] = test system: Klebsiella pneumoniae (G-resistant); assay: Minimal Inhibitory Concentration (MIC), Table I; type: cell-based; settings: garamycin resistant
From the text: as §1, §2, §3

[5] = test system: Klebsiella pneumoniae (N,M resistant); assay: Minimal Inhibitory Concentration (MIC), Table I; type: cell-based
From the text: as §1, §2, §3

Proteus mirabilis = assay: Minimal Inhibitory Concentration (MIC), Table I; type: cell-based
From the text: as §1, §2, §3

Providence = assay: Minimal Inhibitory Concentration (MIC), Table I; type: cell-based
From the text: as §1, §2, §3

[6] = test system: Pseudomonas aeruginosa (G resistant); assay: Minimal Inhibitory Concentration (MIC), Table I; type: cell-based; settings: garamycin resistant
From the text: as §1, §2, §3

Serratia marcessans = assay: Minimal Inhibitory Concentration (MIC), Table I; type: cell-based
From the text: as §1, §2, §3

Staphylococcus aureus = assay: Minimal Inhibitory Concentration (MIC), Table I; type: cell-based
From the text: as §1, §2, §3

Streptococcus pyogenes C = assay: Minimal Inhibitory Concentration (MIC), Table I; type: cell-based
From the text: as §1, §2, §3

Trichomonas Vaginalis = assay: In vitro Activity Against Trichomonas Vaginalis, Table II; type: cell-based; settings: for IC99: read-out: Minimal 99% suppression level; for MBC: read-out: Minimal Cidal Level
From the text: as §1, §2
In vitro Activity Against Trichomonas Vaginalis
STS - Simplified Tripticase Serum Medium, Baltimore Biological
Laboratories, Baltimore, Maryland.

Salmonella typhimurium = assay: Minimal Inhibitory Concentration (MIC), Table I; type: cell-based; settings: Salmonella enterica
From the text: as §1, §2, §3

Pseudomonas aeruginosa = assay: Minimal Inhibitory Concentration (MIC), Table I; type: cell-based
From the text: as §1, §2, §3

pKa of garamine = type: physicochemical
Description: i. 1,3,3'-Tri-N-carbobenzoxygaramine (2.02 g.) was dissolved in methanol (100 ml.), and 10% palladium on carbon (1.0 g.) was added. The mixture was hydrogenated at 25° at 50 lbs/sq. in. for 16 hours, and the catalyst was filtered off, and washed with methanol. The filtrate was evaporated, and chromatographed on silica gel using the lower phase of a chloroform-methanol-concentrated ammonium hydroxide (2:1:1) system as the eluent. The fractions containing the garamine were concentrated in vacuo to small volume, and were then passed through Amberlite IR45 resin. The eluate was concentrated to small volume in vacuo, and the resulting solution was lyophilized to give garamine (750 mg.) (84%) as a colorless amorphous solid, m.p. 89°-99°, (Found: C, 48.31; H, 8.54; N, 12.87. C13 H27 N3 O6 requires: C, 48.60; H, 8.41; N, 13.08%), m/e 322 (M^+ +1), [α]D^26 + 135.4° (H2 O), pKa 8.5, .nu. max (nujol) 3300, 1060 cm.^-1, δ (D 2 O) 1.19 (3H, s, 4'--CH3), 2.51 (3H, s, 3'--NCH3), 2.57 (1H, d, J2',3' =10.5 Hz, H3'), 3.30 )1H, d, J5'a,5'e =12.5 Hz, H5'a), 3.79 (1H, dd, J2',3' =10.5 Hz, J1',2' =4 Hz, H2'), 4.03 (1H, d, J5'a,5'e =12.5 Hz, H5'e), 5.06 ppm. (1H, d, J1',2' =4 Hz, H1').

Row | SMILES | MIC (Bacillus subtilis) | MIC [1] | MIC [2] | MIC [3] | MIC (Escherichia coli) | MIC [4] | MIC [5] | MIC (Proteus mirabilis) | MIC (Providence) | MIC [6] | MIC (Serratia marcessans) | MIC (Staphylococcus aureus) | MIC (Streptococcus pyogenes C) | MIC (Salmonella typhimurium) | MIC (Pseudomonas aeruginosa) | pKa (pKa of garamine) | IC99 (Trichomonas Vaginalis; 24 hr.) | MBC (Trichomonas Vaginalis; 24 hr.) | IC99 (Trichomonas Vaginalis; 48 hr.) | MBC (Trichomonas Vaginalis; 48 hr.)
1 | CN[C@@H]1[C@@H](O)[C@@H](O[C@@H]2[C@@H](O)[C@H](O[C@H]3O[C@H](CO)[C@@H](O)[C@H](O)[C@H]3N)[C@@H](N)C[C@H]2N)OC[C@]1(C)O (stereo in doubt) [Gentamicin X2] | 0.08 µg/mL (≈ 0.166 µM) | > 25 µg/mL | > 25 µg/mL | > 25 µg/mL | 0.8 to 3 µg/mL (≈ 1.66 to 6.22 µM) | > 25 µg/mL | > 25 µg/mL | 3 µg/mL (≈ 6.22 µM) | > 25 µg/mL | > 25 µg/mL | > 25 µg/mL | 0.3 to 7.5 µg/mL (≈ 0.622 to 15.5 µM) | 1 to 17.5 µg/mL (≈ 2.07 to 36.3 µM) |  |  |  | 10 µg/mL | 10 µg/mL (≈ 20.7 µM) | < 10 µg/mL | 10 µg/mL (≈ 20.7 µM)
2 | CCN[C@H]1[C@@H](O[C@H]2[C@H](O)[C@@H](O[C@H]3OC[C@](C)(O)[C@H](NC)[C@H]3O)[C@H](N)C[C@@H]2N)O[C@H](CO)[C@@H](O)[C@@H]1O [2'-N-Ethylgentamicin X2] | 3 µg/mL (≈ 5.88 µM) |  | > 25 µg/mL | > 25 µg/mL |  | > 25 µg/mL | > 25 µg/mL | > 25 µg/mL | > 25 µg/mL | > 25 µg/mL | > 25 µg/mL | 3 to 7.5 µg/mL (≈ 5.88 to 14.7 µM) |  | 3 µg/mL (≈ 5.88 µM) |  |  | < 10 µg/mL | 10 µg/mL (≈ 19.6 µM) | < 2.5 µg/mL | 2.5 µg/mL (≈ 4.9 µM)
3 | CN[C@@H]1[C@@H](O)[C@@H](O[C@@H]2[C@@H](O)[C@H](O)[C@@H](N)C[C@H]2N)OC[C@]1(C)O [Garamine, 0-3-deoxy-4-C-methyl-3-(methylamino)-β-L-arabinopyranosyl-(1→6)-2-deoxy-D-streptamine] |  |  |  |  |  |  |  |  |  |  |  |  |  |  |  | 8.5 |  |  |  | 
4 | CN[C@@H]1[C@@H](O)[C@@H](O[C@@H]2[C@@H](O)[C@H](O[C@H]3O[C@H](CO)[C@@H](O)[C@H](O)[C@H]3O)[C@@H](N)C[C@H]2N)OC[C@]1(C)O [O-α-D-Glucopyranosyl-(1→4)-garamine] |  |  |  |  |  |  |  |  |  |  |  |  |  |  |  |  | 10 µg/mL | 25 µg/mL (≈ 51.7 µM) | < 10 µg/mL | 10 µg/mL (≈ 20.7 µM)

Further lines, with some results ahead:

Row | MIC (Bacillus subtilis) | MIC [1] | MIC [2] | MIC [3] | MIC (Escherichia coli) | MIC [4] | MIC [5] | MIC (Proteus mirabilis) | MIC (Providence) | MIC [6] | MIC (Serratia marcessans) | MIC (Staphylococcus aureus) | MIC (Streptococcus pyogenes C) | MIC (Salmonella typhimurium) | MIC (Pseudomonas aeruginosa) | pKa (pKa of garamine) | SMILES | IC99 (Trichomonas Vaginalis; 24 hr.) | MBC (Trichomonas Vaginalis; 24 hr.) | IC99 (Trichomonas Vaginalis; 48 hr.) | MBC (Trichomonas Vaginalis; 48 hr.)
5 | > 25 µg/mL | > 25 µg/mL | 17.5 µg/mL (≈ 35.4 µM) | 3 µg/mL (≈ 6.07 µM) |  | > 25 µg/mL | 3 to 7.5 µg/mL (≈ 6.07 to 15.2 µM) | > 25 µg/mL | > 25 µg/mL | > 25 µg/mL | 3 µg/mL (≈ 6.07 µM) |  | > 25 µg/mL |  |  |  | CCN[C@@H]1C[C@H](O)[C@@H](CO)O[C@@H]1O[C@H]1[C@H](O)[C@@H](O[C@H]2OC[C@](C)(O)[C@H](NC)[C@H]2O)[C@H](N)C[C@@H]1N [3'-Deoxy-2'-N-ethylgentamicin X2] | < 2.5 µg/mL | < 2.5 µg/mL | < 2.5 µg/mL | < 2.5 µg/mL
6 | < 0.1 µg/mL |  | 0.75 to 17.5 µg/mL (≈ 1.56 to 36.4 µM) | > 25 µg/mL | 0.1 to 0.75 µg/mL (≈ 0.208 to 1.56 µM) | > 25 µg/mL | 0.3 to 0.75 µg/mL (≈ 0.624 to 1.56 µM) | 0.75 to 3 µg/mL (≈ 1.56 to 6.24 µM) | 3 µg/mL (≈ 6.24 µM) |  | 3 µg/mL (≈ 6.24 µM) | 0.1 to 0.3 µg/mL (≈ 0.208 to 0.624 µM) | 0.1 to 17.5 µg/mL (≈ 0.208 to 36.4 µM) |  | 0.1 to 3 µg/mL (≈ 0.208 to 6.24 µM) |  | CNC[C@H]1O[C@H](O[C@H]2[C@H](O)[C@@H](O[C@H]3OC[C@](C)(O)[C@H](NC)[C@H]3O)[C@H](N)C[C@@H]2N)[C@H](O)C[C@@H]1O [3'-Deoxy-6'-N-methylgentamicin B] |  |  |  | 
7 | 0.03 µg/mL (≈ 0.0643 µM) | > 25 µg/mL | 3 to 7.5 µg/mL (≈ 6.43 to 16.1 µM) | 17.5 µg/mL (≈ 37.5 µM) | 3 to 7.5 µg/mL (≈ 6.43 to 16.1 µM) | > 25 µg/mL | 0.8 to 3 µg/mL (≈ 1.71 to 6.43 µM) | 7.5 µg/mL (≈ 16.1 µM) | > 25 µg/mL | > 25 µg/mL | 0.8 µg/mL (≈ 1.71 µM) | 0.5 to 7.5 µg/mL (≈ 1.07 to 16.1 µM) |  | 7.5 µg/mL (≈ 16.1 µM) | 3 to 7.5 µg/mL (≈ 6.43 to 16.1 µM) |  | CN[C@@H]1[C@@H](O)[C@@H](O[C@@H]2[C@@H](O)[C@H](O[C@H]3O[C@H](CO)[C@@H](O)C[C@H]3N)[C@@H](N)C[C@H]2N)OC[C@]1(C)O [3'-Deoxygentamicin X2] | 10 µg/mL | 10 µg/mL (≈ 21.4 µM) | < 10 µg/mL | 10 µg/mL (≈ 21.4 µM)
8 | < 0.05 µg/mL | > 25 µg/mL | 0.08 to 0.8 µg/mL (≈ 0.172 to 1.72 µM) | 17.5 µg/mL (≈ 37.6 µM) | 0.08 µg/mL (≈ 0.172 µM) |  | 0.08 µg/mL (≈ 0.172 µM) | 0.3 µg/mL (≈ 0.644 µM) | > 25 µg/mL | > 25 µg/mL | 3 µg/mL (≈ 6.44 µM) | 0.08 to 0.3 µg/mL (≈ 0.172 to 0.644 µM) | 0.8 to 7.5 µg/mL (≈ 1.72 to 16.1 µM) | 0.75 µg/mL (≈ 1.61 µM) | 0.08 to 0.8 µg/mL (≈ 0.172 to 1.72 µM) |  | CN[C@@H]1[C@@H](O)[C@@H](O[C@@H]2[C@@H](O)[C@H](O[C@H]3O[C@H](CN)[C@@H](O)C[C@H]3N)[C@@H](N)C[C@H]2N)OC[C@]1(C)O [3'-deoxy-JI-20A, O-2,6-Diamino-2,3,6-trideoxy-α-D-glucopyranosyl-(1→4)-garamine] |  |  |  | 
9 | < 0.05 µg/mL | > 25 µg/mL |  | > 25 µg/mL | 0.3 µg/mL (≈ 0.623 µM) | > 25 µg/mL | > 25 µg/mL | 7.5 µg/mL (≈ 15.6 µM) | > 25 µg/mL | > 25 µg/mL | > 25 µg/mL | 0.3 µg/mL (≈ 0.623 µM) | 17.5 µg/mL (≈ 36.3 µM) | 0.3 µg/mL (≈ 0.623 µM) | 7.5 to 17.5 µg/mL (≈ 15.6 to 36.3 µM) |  | CN[C@@H]1[C@@H](O)[C@@H](O[C@@H]2[C@@H](O)[C@H](O[C@H]3O[C@H](CN)[C@@H](O)[C@H](O)[C@H]3N)[C@@H](N)C[C@H]2N)OC[C@]1(C)O [JI-20A] |  |  |  | 

Source: patent US4063015A, “Garamine and derivatives thereof” (Schering Corporation, priority 1975, dated 1977)
